Results as given in ChEMBL document CHEMBL5678818, “Discovery of potent SOS1 inhibitors that block RAS activation via disruption of the RAS-SOS1 interaction” (Proc Natl Acad Sci U S A, 2019).

Experiments:
[1] = target: Phosphatidylinositol 4,5-bisphosphate 3-kinase catalytic subunit beta isoform (Homo sapiens) (UniProt P42338); assay: Inhibition of PIK3CB (unknown origin) assessed as residual activity at 1000 nM by KINOMEscan analysis relative to control
[2] = target: STE20/SPS1-related proline-alanine-rich protein kinase (Homo sapiens) (UniProt Q9UEW8); assay: Inhibition of STK39 (unknown origin) assessed as residual activity at 1000 nM by KINOMEscan analysis relative to control
[3] = target: T1, NUAK family SNF1-like kinase 2 (Homo sapiens) (UniProt Q9H093); assay: Inhibition of SNARK (unknown origin) assessed as residual activity at 1000 nM by KINOMEscan analysis relative to control
T1 sequence (whole entry): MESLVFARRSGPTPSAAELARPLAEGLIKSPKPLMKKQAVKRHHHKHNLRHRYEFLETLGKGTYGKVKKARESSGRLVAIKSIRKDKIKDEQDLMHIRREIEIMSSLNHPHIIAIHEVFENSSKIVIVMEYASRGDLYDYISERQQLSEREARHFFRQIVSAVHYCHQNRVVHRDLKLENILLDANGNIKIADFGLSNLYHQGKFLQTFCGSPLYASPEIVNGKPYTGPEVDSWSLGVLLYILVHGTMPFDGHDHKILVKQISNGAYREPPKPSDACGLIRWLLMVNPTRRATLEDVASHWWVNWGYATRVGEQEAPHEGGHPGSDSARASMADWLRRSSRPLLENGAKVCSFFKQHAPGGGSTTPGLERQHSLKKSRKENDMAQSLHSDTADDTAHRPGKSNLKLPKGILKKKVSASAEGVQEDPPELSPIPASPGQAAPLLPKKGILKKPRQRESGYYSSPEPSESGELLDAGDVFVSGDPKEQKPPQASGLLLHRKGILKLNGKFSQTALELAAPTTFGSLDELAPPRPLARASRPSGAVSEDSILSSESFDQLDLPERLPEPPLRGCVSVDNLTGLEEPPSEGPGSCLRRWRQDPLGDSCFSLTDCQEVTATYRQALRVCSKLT

[4] = target: Serine/threonine-protein kinase 38 (Homo sapiens) (UniProt Q15208); assay: Inhibition of NDR1 (unknown origin) assessed as residual activity at 1000 nM by KINOMEscan analysis relative to control
Serine/threonine-protein kinase 38 (Homo sapiens), sequence (Q15208 2-465 limits assumed): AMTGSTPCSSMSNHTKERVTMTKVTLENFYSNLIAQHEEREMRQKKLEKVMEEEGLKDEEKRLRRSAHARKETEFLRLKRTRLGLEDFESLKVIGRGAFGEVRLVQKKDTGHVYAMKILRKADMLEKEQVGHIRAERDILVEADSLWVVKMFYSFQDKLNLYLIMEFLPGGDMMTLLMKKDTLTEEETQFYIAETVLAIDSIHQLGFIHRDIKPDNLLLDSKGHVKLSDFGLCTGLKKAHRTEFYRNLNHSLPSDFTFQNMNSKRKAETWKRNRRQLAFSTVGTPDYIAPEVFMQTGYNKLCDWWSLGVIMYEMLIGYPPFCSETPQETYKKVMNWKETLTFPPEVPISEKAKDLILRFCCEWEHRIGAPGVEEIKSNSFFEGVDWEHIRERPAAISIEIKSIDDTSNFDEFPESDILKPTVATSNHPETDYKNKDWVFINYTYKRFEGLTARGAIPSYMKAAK

[5] = target: Mitogen-activated protein kinase kinase kinase 10 (Homo sapiens) (UniProt Q02779); assay: Inhibition of MLK2 (unknown origin) assessed as residual activity at 1000 nM by KINOMEscan analysis relative to control
Mitogen-activated protein kinase kinase kinase 10 (Homo sapiens), sequence (Q02779 whole entry, looked up): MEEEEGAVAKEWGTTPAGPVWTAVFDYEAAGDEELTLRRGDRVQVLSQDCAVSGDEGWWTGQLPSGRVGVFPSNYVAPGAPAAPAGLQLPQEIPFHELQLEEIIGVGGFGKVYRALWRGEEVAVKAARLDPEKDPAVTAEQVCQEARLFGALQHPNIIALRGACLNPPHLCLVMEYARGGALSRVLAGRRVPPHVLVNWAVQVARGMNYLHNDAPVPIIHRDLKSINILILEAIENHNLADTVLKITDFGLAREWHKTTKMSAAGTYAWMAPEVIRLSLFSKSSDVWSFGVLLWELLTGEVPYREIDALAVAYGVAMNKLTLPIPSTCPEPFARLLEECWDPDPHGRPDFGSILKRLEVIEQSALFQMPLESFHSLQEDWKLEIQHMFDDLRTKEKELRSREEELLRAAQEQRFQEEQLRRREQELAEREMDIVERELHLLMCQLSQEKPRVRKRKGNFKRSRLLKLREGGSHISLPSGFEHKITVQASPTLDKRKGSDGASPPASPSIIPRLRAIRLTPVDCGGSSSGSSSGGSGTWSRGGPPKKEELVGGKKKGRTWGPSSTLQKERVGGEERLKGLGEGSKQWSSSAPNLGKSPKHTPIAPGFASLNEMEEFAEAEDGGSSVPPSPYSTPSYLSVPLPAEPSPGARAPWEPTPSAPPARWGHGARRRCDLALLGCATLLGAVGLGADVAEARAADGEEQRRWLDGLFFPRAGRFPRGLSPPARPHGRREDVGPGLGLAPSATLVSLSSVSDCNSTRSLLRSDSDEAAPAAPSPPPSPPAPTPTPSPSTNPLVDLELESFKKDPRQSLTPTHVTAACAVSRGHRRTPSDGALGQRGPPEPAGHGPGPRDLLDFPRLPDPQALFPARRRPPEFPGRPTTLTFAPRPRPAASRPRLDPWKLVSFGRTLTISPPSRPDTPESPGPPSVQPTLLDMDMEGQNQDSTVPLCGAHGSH

[6] = target: Phosphatidylinositol 4-phosphate 5-kinase type-1 alpha (Homo sapiens) (UniProt Q99755); assay: Inhibition of PIP5K1A (unknown origin) assessed as residual activity at 1000 nM by KINOMEscan analysis relative to control
Phosphatidylinositol 4-phosphate 5-kinase type-1 alpha (Homo sapiens), sequence (Q99755 whole entry): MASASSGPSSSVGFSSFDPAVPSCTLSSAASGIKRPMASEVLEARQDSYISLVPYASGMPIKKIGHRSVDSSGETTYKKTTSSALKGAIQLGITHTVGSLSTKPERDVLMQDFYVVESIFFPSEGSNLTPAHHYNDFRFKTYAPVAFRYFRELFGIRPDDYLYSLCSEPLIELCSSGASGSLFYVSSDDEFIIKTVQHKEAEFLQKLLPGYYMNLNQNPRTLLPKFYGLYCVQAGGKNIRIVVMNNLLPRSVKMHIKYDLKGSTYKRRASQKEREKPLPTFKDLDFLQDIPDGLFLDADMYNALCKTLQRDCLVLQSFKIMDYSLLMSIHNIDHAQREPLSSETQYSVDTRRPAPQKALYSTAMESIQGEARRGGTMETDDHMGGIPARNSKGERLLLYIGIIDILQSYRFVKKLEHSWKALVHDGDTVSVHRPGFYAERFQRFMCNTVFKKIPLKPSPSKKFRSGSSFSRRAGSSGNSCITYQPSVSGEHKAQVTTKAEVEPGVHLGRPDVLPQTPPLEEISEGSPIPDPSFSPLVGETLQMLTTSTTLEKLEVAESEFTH

[7] = target: RAC-beta serine/threonine-protein kinase (Homo sapiens) (UniProt P31751); assay: Inhibition of AKT2 (unknown origin) assessed as residual activity at 1000 nM by KINOMEscan analysis relative to control
RAC-beta serine/threonine-protein kinase (Homo sapiens), sequence (P31751 whole entry): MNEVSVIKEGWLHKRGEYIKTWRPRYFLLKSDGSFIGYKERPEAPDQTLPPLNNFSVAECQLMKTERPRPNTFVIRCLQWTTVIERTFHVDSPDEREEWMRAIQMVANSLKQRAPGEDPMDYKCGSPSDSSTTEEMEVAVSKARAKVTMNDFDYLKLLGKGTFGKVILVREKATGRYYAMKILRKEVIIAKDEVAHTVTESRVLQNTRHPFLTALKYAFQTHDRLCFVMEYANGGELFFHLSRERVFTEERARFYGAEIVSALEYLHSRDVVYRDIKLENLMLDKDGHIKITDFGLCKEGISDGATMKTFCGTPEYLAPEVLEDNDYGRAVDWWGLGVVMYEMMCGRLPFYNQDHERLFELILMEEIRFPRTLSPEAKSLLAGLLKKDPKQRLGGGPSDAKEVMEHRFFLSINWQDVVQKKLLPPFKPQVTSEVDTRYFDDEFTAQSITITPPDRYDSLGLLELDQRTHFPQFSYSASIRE

[8] = target: T2, Serine/threonine-protein kinase Nek2 (Homo sapiens) (UniProt P51955); assay: Inhibition of NEK2 (unknown origin) assessed as residual activity at 1000 nM by KINOMEscan analysis relative to control
T2 sequence (whole entry): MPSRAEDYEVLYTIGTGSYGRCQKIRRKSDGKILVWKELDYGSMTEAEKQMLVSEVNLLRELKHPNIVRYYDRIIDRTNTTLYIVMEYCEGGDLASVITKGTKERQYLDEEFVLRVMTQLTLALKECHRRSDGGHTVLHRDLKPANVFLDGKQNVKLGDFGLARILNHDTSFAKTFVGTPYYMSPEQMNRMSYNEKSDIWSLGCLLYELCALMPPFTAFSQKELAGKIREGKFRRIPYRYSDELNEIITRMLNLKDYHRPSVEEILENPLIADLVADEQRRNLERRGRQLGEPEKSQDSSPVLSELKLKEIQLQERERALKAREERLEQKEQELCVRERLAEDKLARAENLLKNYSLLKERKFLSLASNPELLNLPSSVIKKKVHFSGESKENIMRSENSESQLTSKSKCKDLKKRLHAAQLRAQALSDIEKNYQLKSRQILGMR

[9] = target: T3, Cyclin-dependent kinase-like 5 (Homo sapiens) (UniProt O76039); assay: Inhibition of CDKL5 (unknown origin) assessed as residual activity at 1000 nM by KINOMEscan analysis relative to control
T3 sequence (whole entry): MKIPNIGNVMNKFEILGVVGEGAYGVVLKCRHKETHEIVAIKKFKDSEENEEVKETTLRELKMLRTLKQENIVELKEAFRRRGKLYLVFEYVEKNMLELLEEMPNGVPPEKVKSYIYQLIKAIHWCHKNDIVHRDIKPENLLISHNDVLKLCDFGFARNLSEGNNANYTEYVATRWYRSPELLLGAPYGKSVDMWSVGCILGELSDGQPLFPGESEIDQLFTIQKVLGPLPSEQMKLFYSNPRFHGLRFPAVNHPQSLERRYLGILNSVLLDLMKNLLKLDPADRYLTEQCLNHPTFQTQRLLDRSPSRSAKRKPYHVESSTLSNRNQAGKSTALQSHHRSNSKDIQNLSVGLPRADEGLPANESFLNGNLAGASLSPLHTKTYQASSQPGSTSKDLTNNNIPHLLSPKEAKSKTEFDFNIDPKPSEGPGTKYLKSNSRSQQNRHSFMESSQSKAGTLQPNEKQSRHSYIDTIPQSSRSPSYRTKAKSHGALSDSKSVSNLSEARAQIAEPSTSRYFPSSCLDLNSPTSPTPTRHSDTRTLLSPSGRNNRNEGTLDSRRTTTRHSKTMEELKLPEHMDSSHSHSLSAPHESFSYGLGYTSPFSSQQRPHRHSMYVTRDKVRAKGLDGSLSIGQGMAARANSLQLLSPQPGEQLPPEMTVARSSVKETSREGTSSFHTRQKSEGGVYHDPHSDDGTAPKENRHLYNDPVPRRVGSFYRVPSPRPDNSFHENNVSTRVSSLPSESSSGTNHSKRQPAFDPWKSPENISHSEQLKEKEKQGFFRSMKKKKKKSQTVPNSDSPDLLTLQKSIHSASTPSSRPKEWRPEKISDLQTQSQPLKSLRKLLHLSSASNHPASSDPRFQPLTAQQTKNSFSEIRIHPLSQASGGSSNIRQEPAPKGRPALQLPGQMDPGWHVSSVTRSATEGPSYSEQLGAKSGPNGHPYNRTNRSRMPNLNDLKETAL

[10] = target: Tyrosine-protein kinase CSK (Homo sapiens) (UniProt P41240); assay: Inhibition of CSK (unknown origin) assessed as residual activity at 1000 nM by KINOMEscan analysis relative to control
Tyrosine-protein kinase CSK (Homo sapiens), sequence (P41240 2-450 limits assumed): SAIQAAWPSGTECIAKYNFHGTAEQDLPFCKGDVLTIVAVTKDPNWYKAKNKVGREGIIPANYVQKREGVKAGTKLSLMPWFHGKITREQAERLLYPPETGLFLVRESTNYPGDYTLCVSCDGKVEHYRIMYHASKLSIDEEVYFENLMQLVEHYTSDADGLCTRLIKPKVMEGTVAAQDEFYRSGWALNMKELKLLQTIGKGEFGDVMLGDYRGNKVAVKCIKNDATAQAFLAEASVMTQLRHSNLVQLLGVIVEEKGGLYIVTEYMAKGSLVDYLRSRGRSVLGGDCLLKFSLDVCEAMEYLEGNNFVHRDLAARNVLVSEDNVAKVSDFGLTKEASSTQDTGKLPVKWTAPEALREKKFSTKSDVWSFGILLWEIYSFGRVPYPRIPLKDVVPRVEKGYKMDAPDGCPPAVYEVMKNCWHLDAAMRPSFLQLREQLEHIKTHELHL

[11] = target: Death-associated protein kinase 3 (Homo sapiens) (UniProt O43293); assay: Inhibition of DAPK3 (unknown origin) assessed as residual activity at 1000 nM by KINOMEscan analysis relative to control
Death-associated protein kinase 3 (Homo sapiens), sequence (O43293 whole entry, looked up): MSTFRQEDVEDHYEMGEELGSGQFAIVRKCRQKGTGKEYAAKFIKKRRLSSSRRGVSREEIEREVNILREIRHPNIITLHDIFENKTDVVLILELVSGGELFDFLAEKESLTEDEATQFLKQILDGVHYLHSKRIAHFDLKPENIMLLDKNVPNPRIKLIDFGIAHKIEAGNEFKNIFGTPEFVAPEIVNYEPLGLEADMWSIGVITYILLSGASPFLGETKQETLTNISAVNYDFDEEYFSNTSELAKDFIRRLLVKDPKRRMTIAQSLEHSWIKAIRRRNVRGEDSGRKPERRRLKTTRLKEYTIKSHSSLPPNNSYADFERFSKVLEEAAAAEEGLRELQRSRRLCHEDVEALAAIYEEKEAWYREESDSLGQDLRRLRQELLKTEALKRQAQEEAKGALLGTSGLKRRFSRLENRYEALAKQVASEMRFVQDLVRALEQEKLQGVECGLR

[12] = target: Tyrosine-protein kinase Srms (Homo sapiens) (UniProt Q9H3Y6); assay: Inhibition of SRMS (unknown origin) assessed as residual activity at 1000 nM by KINOMEscan analysis relative to control
Tyrosine-protein kinase Srms (Homo sapiens), sequence (Q9H3Y6 whole entry): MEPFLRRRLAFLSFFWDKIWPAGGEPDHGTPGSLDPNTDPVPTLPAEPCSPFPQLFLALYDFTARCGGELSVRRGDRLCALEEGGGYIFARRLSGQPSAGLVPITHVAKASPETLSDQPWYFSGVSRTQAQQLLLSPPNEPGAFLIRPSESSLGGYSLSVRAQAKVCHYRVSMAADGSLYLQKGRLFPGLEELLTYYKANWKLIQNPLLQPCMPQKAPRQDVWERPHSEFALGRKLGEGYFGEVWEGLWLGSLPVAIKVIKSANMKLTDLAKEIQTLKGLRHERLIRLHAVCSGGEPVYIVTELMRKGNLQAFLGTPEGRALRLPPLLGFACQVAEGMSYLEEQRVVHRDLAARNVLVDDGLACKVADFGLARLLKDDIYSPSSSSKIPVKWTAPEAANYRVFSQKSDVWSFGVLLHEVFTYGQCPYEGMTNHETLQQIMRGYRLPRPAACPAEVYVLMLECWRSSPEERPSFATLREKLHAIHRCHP

Phosphatidylinositol 4,5-bisphosphate 3-kinase catalytic subunit beta isoform (Homo sapiens), sequence (P42338 whole entry, looked up, canonical isoform): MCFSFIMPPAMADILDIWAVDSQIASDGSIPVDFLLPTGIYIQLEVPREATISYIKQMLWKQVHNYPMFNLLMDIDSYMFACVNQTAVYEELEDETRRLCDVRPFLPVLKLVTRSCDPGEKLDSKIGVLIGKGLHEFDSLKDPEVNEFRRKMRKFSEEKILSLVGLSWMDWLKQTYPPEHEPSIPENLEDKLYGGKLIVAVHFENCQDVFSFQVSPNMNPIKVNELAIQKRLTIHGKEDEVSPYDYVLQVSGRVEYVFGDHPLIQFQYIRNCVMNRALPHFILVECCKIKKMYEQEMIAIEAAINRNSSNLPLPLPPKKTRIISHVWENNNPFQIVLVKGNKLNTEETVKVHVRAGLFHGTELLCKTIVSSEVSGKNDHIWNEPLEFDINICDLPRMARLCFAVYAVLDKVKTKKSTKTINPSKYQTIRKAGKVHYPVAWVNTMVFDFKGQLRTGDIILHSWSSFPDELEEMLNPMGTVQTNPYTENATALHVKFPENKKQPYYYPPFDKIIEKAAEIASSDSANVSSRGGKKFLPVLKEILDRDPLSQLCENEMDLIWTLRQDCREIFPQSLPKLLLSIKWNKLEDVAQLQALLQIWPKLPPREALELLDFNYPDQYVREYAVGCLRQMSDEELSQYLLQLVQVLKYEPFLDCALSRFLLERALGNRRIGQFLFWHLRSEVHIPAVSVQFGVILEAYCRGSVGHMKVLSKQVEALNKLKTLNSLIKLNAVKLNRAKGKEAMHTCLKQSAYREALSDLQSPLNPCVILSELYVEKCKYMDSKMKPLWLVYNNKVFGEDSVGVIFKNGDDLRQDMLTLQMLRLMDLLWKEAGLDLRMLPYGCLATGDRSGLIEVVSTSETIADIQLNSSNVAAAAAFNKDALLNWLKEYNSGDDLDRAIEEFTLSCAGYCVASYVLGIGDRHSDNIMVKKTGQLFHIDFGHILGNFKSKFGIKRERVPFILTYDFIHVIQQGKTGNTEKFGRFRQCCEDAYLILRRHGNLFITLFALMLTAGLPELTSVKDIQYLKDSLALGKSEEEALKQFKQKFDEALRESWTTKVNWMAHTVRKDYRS

| SMILES | Activity [1] | Activity [2] | Activity [3] | Activity [4] | Activity [5] | Activity [6] | Activity [7] | Activity [8] | Activity [9] | Activity [10] | Activity [11] | Activity [12] |
| --- | --- | --- | --- | --- | --- | --- | --- | --- | --- | --- | --- | --- |
| COc1cc2nc(C)nc(N[C@H](C)c3cccc(-c4cn[nH]c4)c3)c2cc1OC | 89% | 76% | 100% | 64% | 42% | 93% | 99% | 89% | 82% | 93% | 76% | 87% |
| COc1cc2ncnc(N[C@H](C)c3cccc4ccccc34)c2cc1OC | 13% | 100% | 95% | 79% | 97% | 90% | 100% | 98% | 94% | 87% | 100% | 83% |
